Laboratory results from PubChem BioAssay AID1918939 (Molecular Pharmacology Branch, DTP, NCI, 2023).
Values joined by “and” are separate entries in the source; they are usually repeats but may differ in a detail not shown here. Identical values can stand only once.

System: 653999-131-R-J2-PDC complex spheroid viability
Experiment: Anticancer human tumor 653999-131-R-J2-PDC patient-derived lung adenocarcinoma cell line growth inhibition
Details: for viability, T/C: stronger effect = lower value
Summary of the method: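 Multicellular complex spheroids of tumor cells with human endothelial cells (HUVEC) and mesenchymal stem cells; the LSD1 inhibitor iadademstat was combined with standard-of-care or investigational agents. Top concentration at or near clinical Cmax, half-log dilutions; final DMSO ≤0.25%.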

[1] = curve of first compound, second compound 0.1 µM
[2] = curve of first compound, second compound 0.316 µM
[3] = curve of first compound, second compound 1 µM
[4] = curve of first compound, second compound 3.16 µM
[5] = curve of first compound, second compound 10 µM
[6] = second compound 0.1 µM, first compound 0.0316 µM
[7] = second compound 0.1 µM, first compound 0.1 µM
[8] = second compound 0.1 µM, first compound 0.316 µM
[9] = second compound 0.1 µM, first compound 1 µM
[10] = second compound 0.1 µM, first compound 3.16 µM
[11] = second compound 0.1 µM, first compound 10 µM
[12] = second compound 0.316 µM, first compound 0.0316 µM
[13] = second compound 0.316 µM, first compound 0.1 µM
[14] = second compound 0.316 µM, first compound 0.316 µM
[15] = second compound 0.316 µM, first compound 1 µM
[16] = second compound 0.316 µM, first compound 3.16 µM
[17] = second compound 0.316 µM, first compound 10 µM
[18] = second compound 1 µM, first compound 0.0316 µM
[19] = second compound 1 µM, first compound 0.1 µM
[20] = second compound 1 µM, first compound 0.316 µM
[21] = second compound 1 µM, first compound 1 µM
[22] = second compound 1 µM, first compound 3.16 µM
[23] = second compound 1 µM, first compound 10 µM
[24] = second compound 3.16 µM, first compound 0.0316 µM
[25] = second compound 3.16 µM, first compound 0.1 µM
[26] = second compound 3.16 µM, first compound 0.316 µM
[27] = second compound 3.16 µM, first compound 1 µM
[28] = second compound 3.16 µM, first compound 3.16 µM
[29] = second compound 3.16 µM, first compound 10 µM
[30] = second compound 10 µM, first compound 0.0316 µM
[31] = second compound 10 µM, first compound 0.1 µM
[32] = second compound 10 µM, first compound 0.316 µM
[33] = second compound 10 µM, first compound 1 µM
[34] = second compound 10 µM, first compound 3.16 µM
[35] = second compound 10 µM, first compound 10 µM
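Further: spheroids exposed to agents for seven days before readout.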

## CC1(C)CCC(CN2CCN(c3ccc(C(=O)NS(=O)(=O)c4ccc(NCC5CCOCC5)c([N+](=O)[O-])c4)c(Oc4cnc5[nH]ccc5c4)c3)CC2)=C(c2ccc(Cl)cc2)C1 + NC1CCC(NC2CC2c2ccccc2)CC1
[1]
  IC50: 9330 nM
[2]
  IC50: 8460 nM
[3]
  IC50: 8730 nM
[4]
  IC50: 7790 nM
[5]
  IC50: > 10000 nM
[6]
  viability, T/C: 93.5%
[7]
  viability, T/C: 82.4%
[8]
  viability, T/C: 86.9%
[9]
  viability, T/C: 100%
[10]
  viability, T/C: 94.8%
[11]
  viability, T/C: 47.3%
[12]
  viability, T/C: 76.8%
[13]
  viability, T/C: 89.7%
[14]
  viability, T/C: 97.7%
[15]
  viability, T/C: 92%
[16]
  viability, T/C: 92.2%
[17]
  viability, T/C: 43.2%
[18]
  viability, T/C: 77%
[19]
  viability, T/C: 83.4%
[20]
  viability, T/C: 97.2%
[21]
  viability, T/C: 96.5%
[22]
  viability, T/C: 73.7%
[23]
  viability, T/C: 46.8%
[24]
  viability, T/C: 97.9%
[25]
  viability, T/C: 88.1%
[26]
  viability, T/C: 102%
[27]
  viability, T/C: 94.2%
[28]
  viability, T/C: 74.5%
[29]
  viability, T/C: 43.2%
[30]
  viability, T/C: 89%
[31]
  viability, T/C: 84.2%
[32]
  viability, T/C: 87.4%
[33]
  viability, T/C: 87.3%
[34]
  viability, T/C: 78.1%
[35]
  viability, T/C: 50%

## CC(C)CC(NC(=O)CNC(=O)c1cc(Cl)ccc1Cl)B1OC(=O)CC(CC(=O)O)(C(=O)O)O1 (configuration not stated)
Compound 0.000316 µM
  viability, T/C: 101% and 110%
Compound 0.001 µM
  viability, T/C: 108% and 115%
Compound 0.00316 µM
  viability, T/C: 92.6% and 107%
Compound 0.01 µM
  viability, T/C: 56.9% and 74.5%
Compound 0.0316 µM
  viability, T/C: 25.3% and 34.1%
Compound 0.1 µM
  viability, T/C: 5.14% and 18.5%
Curve of compound
  IC50: 13.4 nM and 19.9 nM

## COc1ccc([C@@H](O)c2cc(-c3ncnc4cc(N5CCOCC5)ccc34)c(F)cc2Cl)nn1 + NC1CCC(NC2CC2c2ccccc2)CC1
[1]
  IC50: 1830 nM
[2]
  IC50: 1750 nM
[3]
  IC50: 2560 nM
[4]
  IC50: 2250 nM
[5]
  IC50: 1720 nM
[6]
  viability, T/C: 97.4%
[7]
  viability, T/C: 94.9%
[8]
  viability, T/C: 68.8%
[9]
  viability, T/C: 61.5%
[10]
  viability, T/C: 42%
[11]
  viability, T/C: 30.9%
[12]
  viability, T/C: 106%
[13]
  viability, T/C: 85.3%
[14]
  viability, T/C: 74.7%
[15]
  viability, T/C: 60.8%
[16]
  viability, T/C: 39%
[17]
  viability, T/C: 28.1%
[18]
  viability, T/C: 96.5%
[19]
  viability, T/C: 98%
[20]
  viability, T/C: 76.6%
[21]
  viability, T/C: 68.5%
[22]
  viability, T/C: 45.7%
[23]
  viability, T/C: 29.4%
[24]
  viability, T/C: 84.2%
[25]
  viability, T/C: 114%
[26]
  viability, T/C: 78.1%
[27]
  viability, T/C: 65.2%
[28]
  viability, T/C: 46.4%
[29]
  viability, T/C: 31.5%
[30]
  viability, T/C: 108%
[31]
  viability, T/C: 98%
[32]
  viability, T/C: 72%
[33]
  viability, T/C: 57%
[34]
  viability, T/C: 44.6%
[35]
  viability, T/C: 29.4%

## CC1(C)CCC(CN2CCN(c3ccc(C(=O)NS(=O)(=O)c4ccc(NCC5CCOCC5)c([N+](=O)[O-])c4)c(Oc4cnc5[nH]ccc5c4)c3)CC2)=C(c2ccc(Cl)cc2)C1 + NC1CC1c1ccc(-c2cccc(O)c2)cc1
[1]
  IC50: 5740 nM
[2]
  IC50: 4870 nM
[3]
  IC50: 5190 nM
[4]
  IC50: 5260 nM
[5]
  IC50: 4530 nM
[6]
  viability, T/C: 117%
[7]
  viability, T/C: 118%
[8]
  viability, T/C: 107%
[9]
  viability, T/C: 102%
[10]
  viability, T/C: 81.5%
[11]
  viability, T/C: 21.6%
[12]
  viability, T/C: 103%
[13]
  viability, T/C: 112%
[14]
  viability, T/C: 101%
[15]
  viability, T/C: 99.3%
[16]
  viability, T/C: 65.7%
[17]
  viability, T/C: 23.6%
[18]
  viability, T/C: 103%
[19]
  viability, T/C: 101%
[20]
  viability, T/C: 107%
[21]
  viability, T/C: 107%
[22]
  viability, T/C: 72.6%
[23]
  viability, T/C: 20.2%
[24]
  viability, T/C: 89.9%
[25]
  viability, T/C: 84.2%
[26]
  viability, T/C: 105%
[27]
  viability, T/C: 86.8%
[28]
  viability, T/C: 76.5%
[29]
  viability, T/C: 16.8%
[30]
  viability, T/C: 85.3%
[31]
  viability, T/C: 102%
[32]
  viability, T/C: 89.4%
[33]
  viability, T/C: 95.8%
[34]
  viability, T/C: 68.8%
[35]
  viability, T/C: 8.78%

## COc1cc(C2c3cc4c(cc3C(OC3OC5COC(C)OC5C(O)C3O)C3COC(=O)C23)OCO4)cc(OC)c1O (configuration not stated) + NC1CCC(NC2CC2c2ccccc2)CC1
[1]
  IC50: 88.4 nM
[2]
  IC50: 123 nM
[3]
  IC50: 64.5 nM
[4]
  IC50: 168 nM
[5]
  IC50: 241 nM
Second compound 0.1 µM, first compound 0.00949 µM
  viability, T/C: 70.8%
Second compound 0.1 µM, first compound 0.03 µM
  viability, T/C: 61.6%
Second compound 0.1 µM, first compound 0.0949 µM
  viability, T/C: 48.6%
Second compound 0.1 µM, first compound 0.3 µM
  viability, T/C: 38.2%
Second compound 0.1 µM, first compound 0.949 µM
  viability, T/C: 37.6%
Second compound 0.1 µM, first compound 3 µM
  viability, T/C: 28.3%
Second compound 0.316 µM, first compound 0.00949 µM
  viability, T/C: 68.6%
Second compound 0.316 µM, first compound 0.03 µM
  viability, T/C: 63.7%
Second compound 0.316 µM, first compound 0.0949 µM
  viability, T/C: 54.5%
Second compound 0.316 µM, first compound 0.3 µM
  viability, T/C: 36.6%
Second compound 0.316 µM, first compound 0.949 µM
  viability, T/C: 31.3%
Second compound 0.316 µM, first compound 3 µM
  viability, T/C: 29.7%
Second compound 1 µM, first compound 0.00949 µM
  viability, T/C: 74.5%
Second compound 1 µM, first compound 0.03 µM
  viability, T/C: 52.6%
Second compound 1 µM, first compound 0.0949 µM
  viability, T/C: 50.2%
Second compound 1 µM, first compound 0.3 µM
  viability, T/C: 35.7%
Second compound 1 µM, first compound 0.949 µM
  viability, T/C: 37.5%
Second compound 1 µM, first compound 3 µM
  viability, T/C: 26.8%
Second compound 3.16 µM, first compound 0.00949 µM
  viability, T/C: 71.5%
Second compound 3.16 µM, first compound 0.03 µM
  viability, T/C: 66.6%
Second compound 3.16 µM, first compound 0.0949 µM
  viability, T/C: 55.9%
Second compound 3.16 µM, first compound 0.3 µM
  viability, T/C: 44.9%
Second compound 3.16 µM, first compound 0.949 µM
  viability, T/C: 31.3%
Second compound 3.16 µM, first compound 3 µM
  viability, T/C: 30.3%
Second compound 10 µM, first compound 0.00949 µM
  viability, T/C: 68.3%
Second compound 10 µM, first compound 0.03 µM
  viability, T/C: 60.6%
Second compound 10 µM, first compound 0.0949 µM
  viability, T/C: 57.7%
Second compound 10 µM, first compound 0.3 µM
  viability, T/C: 49.9%
Second compound 10 µM, first compound 0.949 µM
  viability, T/C: 37.3%
Second compound 10 µM, first compound 3 µM
  viability, T/C: 31.3%
